Measured values taken from patent US8759303B2, “Compositions and methods for treating myelodysplastic syndrome” (Telik, Inc., priority 2010, dated 2014).
Like-named read-outs stand apart in the source and are kept apart here.

Tested on: patients with IPSS Low to Intermediate-1 Risk Myelodysplastic Syndrome
Details: for patients achieving significant RBC transfusion reduction: no prior DMTI, five of 11 patients
Procedure: Eighty-seven patients were randomized and treated at 23 investigational sites. After initial dose ranging in 14 patients, two dose levels were selected for further study. Subsequently, 37 patients were treated at 3 grams daily for two weeks followed by a one week rest period, and 36 patients were treated at 2 grams daily for three weeks followed by a one week rest period. The data on these 73 patients was pooled for this preliminary analysis.

**Q.** Which results are given for `CCOC(=O)[C@@H](N)CCC(=O)N[C@@H](CSCc1ccccc1)C(=O)N[C@@H](C(=O)OCC)c1ccccc1` [Telintra, ethyl (2S)-2-amino-5-[[(2R)-3-benzylsulfanyl-1-[[(1R)-2-ethoxy-2-oxo-1-phenylethyl]amino]-1-oxopropan-2-yl]amino]-5-oxopentanoate]?
**A.** increase in response rate, lenalidomide pre-treated vs not pre-treated patients (46% vs 22% response rate): over 100%; cytogenetic complete responses (all study patients): three cytogenetic complete responses; HI-E Response Rate (95% Confidence Interval) (efficacy evaluable patients with prior Revlimid (lenalidomide) treatment: Yes, N=13, listed as ezatiostat hydrochloride): about 46%; complete cytogenetic response in del 5q minus patients (four patients enrolled with del 5q minus, one responder had failed prior Revlimid): two had a complete cytogenetic response; change in odds for a HI-E response with prior DMTI treatment (logistic regression analysis, p=0.023): five-fold decrease; patients achieving significant RBC transfusion reduction (no prior Revlimid): 45%; duration of complete remission following discontinuation of therapy (one patient (Quddus et al.)): more than 12 months; patients achieving significant RBC transfusion reduction (prior Revlimid): 45%
